Data as given in US20140212441A1, “PHARMACEUTICAL COMPOSITION FOR INFLAMMATORY DISEASES, ALLERGIC DISEASES AND AUTOIMMUNE DISEASES” (R-TECH UENO, LTD., priority 2011, published 2014).

Tests used:
[1] = system: LPS-stimulated mouse B cell proliferation; assay: B cell proliferation suppression test; type: cell-based; conditions: LPS-stimulated Balb/c spleen B lymphocytic cells, 3H thymidine uptake
Method: (§1) B lymphocytic cells (2×10^6/mL) isolated from the spleen of Balb/c mice (weighing 17±1 g) were cultured in a pH 7.4 AIM-V medium containing a given concentration of compound A and 10 mg/mL of a lipopolysaccharide (LPS) at 37° C. for 24 hours, and, after added with 120 nM ^3H thymidine, further cultured for 16 hours. The cells were collected by filter filtration, and the uptake of thymidine into the cells was measured using a liquid scintillation counter to evaluate the cell proliferation-suppressing effect and calculate IC50.

[2] = system: Con A-stimulated mouse T cell proliferation; assay: T cell proliferation suppression test; type: cell-based; conditions: Con A-stimulated Balb/c thymus T lymphocytic cells, 3H thymidine uptake
Method: as §1, with “T lymphocytic” for “B lymphocytic”, “cells (5×10^6/mL)” for “cells (2×10^6/mL)”, “the thymus” for “the spleen”, “and […]” for “and 10”, “of concanavalin A (Con A)” for “of a lipopolysaccharide (LPS)”

[3] = system: transcription factor NFAT-1; assay: NF-AT gene transcription suppression test (lac Z reporter, Jurkat cells); type: cell-based; conditions: Homo sapiens, lac Z under NFAT-1 site, A23187 + PMA, β-galactosidase activity
Method: (§2) Human T lymphocyte Jurkat cells transformed with a β-galactosidase gene (lac Z) having a DNA binding site for the transcription factor NFAT-1 in its transcriptional control region (2.3×10^6/mL) were cultured together with a given concentration of compound A in a pH 7.4 RPMI-1640 medium at 37° C. for 20 minutes, and, after added with […] A23187 (calcium ionophore) and 50 ng/mL PMA (Phorbol 12-myristate 13-acetate), further cultured for 4 hours. The activity of β-galactosidase was measured by conversion from FDG (fluorescein-di-beta-D-galactopyranoside) to fluorescein. Fluorescent emission was measured using a SpectroFluor Plus plate reader and IC50 was calculated.

[4] = system: transcription factor NF-κB; assay: NF-κB gene transcription suppression test (lac Z reporter, Jurkat cells); type: cell-based; conditions: Homo sapiens, lac Z under NF-κB site, A23187 + PMA, β-galactosidase activity
Method: as §2, with “NF-κB” for “NFAT-1”

[5] = system: PiCl-induced atopic dermatitis model mice (NC/NgaTndCrlj, male); assay: Atopic dermatitis mouse model: dermatitis score; type: in vivo; set-up: key to Dermatitis score (average ± standard error): sum of grades of five findings, each 0 (subclinical) to 3 (severe)
Method: (§3) An atopic dermatitis mouse model (NC/NgaTndCrlj, male) induced by picryl chloride (PiCl) was used to evaluate effects against dermal inflammation and hair conditions on the skin suffering from dermal inflammation.
(§4) PiCl-induced atopic dermatitis model mice were prepared by applying a PiCl solution to the sheared abdomen and footpad for sensitization and applying the PiCl solution to the sheared back and the right and left ears (both the inside and outside thereof) once a week for 5 weeks starting from the 5th day after sensitization for repeated induction. In each group, administration was performed once a day for 28 days starting from the 18th day after PiCl sensitization. Compound A and 0.1% tacrolimus ointment were openly applied to a ca. 3 cm×ca. 5 cm region of the neck and back of the model animals. The animals of the 5th group (the group of combined administration of prednisolone and 0.6 w/v % compound A) were orally administered 1 mg/kg of prednisolone and then transdermally administered 0.6 w/v % compound A. The animals of the 6th group (the group of combined administration of 0.1% tacrolimus ointment and 0.6 w/v % compound A) were administered 0.1% tacrolimus ointment at or beyond 3.5 hours after administration of 0.6 w/v % compound A.
(§5) Each evaluation used a dermatitis score and a hair restoration score. The scores were obtained by grading dermatitis and hair growth/hair restoration conditions at Day 1, 8, 15, 22, and 29 (the next day after final administration) of administration, according to the following criteria.
<Dermatitis Findings> The dermatitis score of each individual was expressed as the sum of grades (0: subclinical to 3: severe) of the following dermatitis findings (1) to (5).
(2) Flare/bleeding: Flare and bleeding symptoms in the induction site were observed.
(3) Edema: The edema of the auricle as the induction site was qualitatively observed.
An effect against atopic dermal inflammation was evaluated using the dermatitis score at Day 8 of administration.

[6] = system: PiCl-induced atopic dermatitis model mice (NC/NgaTndCrlj, male); assay: Atopic dermatitis mouse model: hair restoration score; type: in vivo; set-up: key to Hair restoration score (average ± standard error): 0 = no hair growth, 3 = hair restoration in 75-100% of site
Method: as §3, §4, §5
<Hair Growth/Hair Restoration Condition> A region received transdermal administration (a ca. 3 cm×ca. 5 cm region of the neck and back) of each individual was observed.
0: No hair growth or hair restoration is noted in the observation site.
1: Hair growth and hair restoration are noted in 0<25% of the observation site.
2: Hair growth and hair restoration are noted in 25≦75% of the observation site.
3: Hair growth and hair restoration are noted in 75≦100% of the observation site.
Hair condition in the skin suffering from dermal inflammation was evaluated using hair restoration scores at Day 15, 22 and 29 of administration.

[7] = 0.08 w/v % Compound A transdermal once a day, Day 15
[8] = 0.08 w/v % Compound A transdermal once a day, Day 22
[9] = 0.08 w/v % Compound A transdermal once a day, Day 29
[10] = 0.3 w/v % Compound A transdermal once a day, Day 1
[11] = 0.3 w/v % Compound A transdermal once a day, Day 15
[12] = 0.3 w/v % Compound A transdermal once a day, Day 22
[13] = 0.3 w/v % Compound A transdermal once a day, Day 29
[14] = 0.6 w/v % Compound A transdermal once a day, Day 1
[15] = 0.6 w/v % Compound A transdermal once a day, Day 15
[16] = 0.6 w/v % Compound A transdermal once a day, Day 22

## CCCCCCCC1(CC[C@@H]2[C@@H](C/C=C\CCCC(=O)OC(C)C)[C@@H](O)C[C@H]2O)OCCO1 [Compound A, isopropyl (Z)-7-[(1R,2R,3R,5S)-2-(3,3-ethylenedioxydecyl)-3,5-dihydroxycyclopentyl]hept-5-enoate]
[1]
  IC50: 9.23 µM
[2]
  IC50: 6.3 µM
[3]
  IC50: 1.32 µM
[4]
  IC50: 1.33 µM
[5]; 0.08 w/v % Compound A transdermal once a day, Day 1 of administration
  Dermatitis score (average ± standard error): 3.8 ± 0.4
[5]; 0.08 w/v % Compound A transdermal once a day, Day 8
  Dermatitis score (average ± standard error): 3.7 ± 0.6
[5]; [7]
  Dermatitis score (average ± standard error): 6.2 ± 0.7
[5]; [8]
  Dermatitis score (average ± standard error): 8.0 ± 0.5
[5]; [9]
  Dermatitis score (average ± standard error): 9.0 ± 0.7
[5]; [10]
  Dermatitis score (average ± standard error): 3.3 ± 0.5
[5]; 0.3 w/v % Compound A transdermal once a day, Day 8
  Dermatitis score (average ± standard error): 3.5 ± 0.4
[5]; [11]
  Dermatitis score (average ± standard error): 5.5 ± 0.5
[5]; [12]
  Dermatitis score (average ± standard error): 7.5 ± 0.7
[5]; [13]
  Dermatitis score (average ± standard error): 8.1 ± 0.5
[5]; [14]
  Dermatitis score (average ± standard error): 3.6 ± 0.3
[5]; [15]
  Dermatitis score (average ± standard error): 6.0 ± 0.7
[5]; [16]
  Dermatitis score (average ± standard error): 8.3 ± 0.4
[5]; 0.6 w/v % Compound A transdermal once a day, Day 29
  Dermatitis score (average ± standard error): 9.3 ± 0.6
[5]; compared to the group administered with the base for compound A, Day 8 dermatitis score
  progression of early dermatitis: tendency to be suppressed
[6]; 0.08 w/v % Compound A transdermal once a day, Day 1
  Hair restoration score (average ± standard error): 0.0 ± 0.0
[6]; [7]
  Hair restoration score (average ± standard error): 2.2 ± 0.1
[6]; [8]
  Hair restoration score (average ± standard error): 1.4 ± 0.2
[6]; [9]
  Hair restoration score (average ± standard error): 1.5 ± 0.2
[6]; [10]
  Hair restoration score (average ± standard error): 0.0 ± 0.0
[6]; [11]
  Hair restoration score (average ± standard error): 2.1 ± 0.2
[6]; [12]
  Hair restoration score (average ± standard error): 1.6 ± 0.2
[6]; [13]
  Hair restoration score (average ± standard error): 1.9 ± 0.2
[6]; [14]
  Hair restoration score (average ± standard error): 0.0 ± 0.0
[6]; [15]
  Hair restoration score (average ± standard error): 1.8 ± 0.2
[6]; [16]
  Hair restoration score (average ± standard error): 1.5 ± 0.2
[6]; 0.6 w/v % Compound A transdermal once a day, Day 29, P < 0.05 vs Day 22
  Hair restoration score (average ± standard error): 2.0 ± 0.0
[6]; Day 29 of administration compared to Day 22
  change in hair restoration score (improvement in the hair loss): observed in a dose-dependent manner
